# Measurements reported in PMC12406203 (Journal of Medicinal Chemistry, 2025).
# Where “and” joins values, the source holds several entries; their conditions need not be identical. Equal values may be shown once.
# Key:
# hAChE [1] = target: hAChE (Homo sapiens, UniProt P22303); settings: residual activity at 100 μM; mean ± SD, one experiment in triplicate
# human p38α MAPK = human p38α MAPK (Homo sapiens, UniProt Q16539); settings: for p38α MAPK RA at 100 μM: residual activity at 100 μM, mean ± SD, one experiment in triplicate
# Sequence of human p38α MAPK (Q16539 whole entry): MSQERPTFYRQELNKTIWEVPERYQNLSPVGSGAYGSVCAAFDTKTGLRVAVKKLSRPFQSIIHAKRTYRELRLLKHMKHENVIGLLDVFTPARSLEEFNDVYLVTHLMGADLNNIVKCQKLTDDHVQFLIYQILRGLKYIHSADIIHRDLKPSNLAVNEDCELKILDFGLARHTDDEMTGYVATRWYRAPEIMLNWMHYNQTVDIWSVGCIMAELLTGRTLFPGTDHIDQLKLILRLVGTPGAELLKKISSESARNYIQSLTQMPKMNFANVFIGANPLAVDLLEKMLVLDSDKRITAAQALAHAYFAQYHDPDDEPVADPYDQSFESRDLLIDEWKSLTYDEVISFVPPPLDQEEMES
# Method: The inhibitory activities against human p38α MAPK were evaluated using the commercially available ADP-Glo Kinase Assay (Promega, Inc., USA).
# For the reference sample, 1% [v/v] DMSO replaced the inhibitor solution. […] The enzyme reaction was started with the addition of the enzyme solution. The DMSO concentration in the test solution was maintained at 1% [v/v]. The plate was incubated for 60 min. Then 5 μL of ADP-Glo reagent was added, followed by a 40 min incubation at room temperature. […] All incubations were performed at room temperature. The RA and IC50 values were calculated as described above (ChEs inhibitory potency).
# hBChE [2] = target: hBChE (Homo sapiens, UniProt P06276); settings: residual activity at 100 μM; mean ± SD, one experiment in triplicate
# Sequence of hBChE (Homo sapiens, UniProt P06276) (P06276 29-602): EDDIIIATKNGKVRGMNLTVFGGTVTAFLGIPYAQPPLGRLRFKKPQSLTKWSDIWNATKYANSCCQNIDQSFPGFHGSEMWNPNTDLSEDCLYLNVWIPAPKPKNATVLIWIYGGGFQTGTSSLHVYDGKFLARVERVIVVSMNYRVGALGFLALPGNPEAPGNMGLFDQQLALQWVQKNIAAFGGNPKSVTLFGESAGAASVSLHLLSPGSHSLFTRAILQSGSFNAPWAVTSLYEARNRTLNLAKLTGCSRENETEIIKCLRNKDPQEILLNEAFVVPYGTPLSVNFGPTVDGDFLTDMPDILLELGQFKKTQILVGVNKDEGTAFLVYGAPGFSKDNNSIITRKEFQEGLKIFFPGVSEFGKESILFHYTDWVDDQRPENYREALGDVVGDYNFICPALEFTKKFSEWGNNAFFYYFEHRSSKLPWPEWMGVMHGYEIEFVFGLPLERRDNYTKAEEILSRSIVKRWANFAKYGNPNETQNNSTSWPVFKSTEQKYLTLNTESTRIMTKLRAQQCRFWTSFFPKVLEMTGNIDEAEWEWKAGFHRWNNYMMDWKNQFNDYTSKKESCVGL
# Method: The inhibitory potencies of the compounds against the ChEs were determined using the method of Ellman. […] The final content of DMSO was always 1% [v/v]. […] The initial velocities in the presence (v i ) and absence (v 0) of the test compounds were calculated. The inhibitory potencies were expressed as the residual activities, according to RA = (v i – b)/(v 0 – b), where b is the blank value using phosphate buffer without ChEs. For IC50 determinations, at least seven different concentrations for each compound were used. The IC50 values were obtained by plotting the residual ChE activities against the applied inhibitor concentrations, with the experimental data fitted to a four-parameter logistic function (GraphPad Prism 10.0).
# hAChE [3] = test system: hAChE
# hBChE [4] = test system: hBChE
# Sequence of hAChE (Homo sapiens, UniProt P22303) (P22303 32-614): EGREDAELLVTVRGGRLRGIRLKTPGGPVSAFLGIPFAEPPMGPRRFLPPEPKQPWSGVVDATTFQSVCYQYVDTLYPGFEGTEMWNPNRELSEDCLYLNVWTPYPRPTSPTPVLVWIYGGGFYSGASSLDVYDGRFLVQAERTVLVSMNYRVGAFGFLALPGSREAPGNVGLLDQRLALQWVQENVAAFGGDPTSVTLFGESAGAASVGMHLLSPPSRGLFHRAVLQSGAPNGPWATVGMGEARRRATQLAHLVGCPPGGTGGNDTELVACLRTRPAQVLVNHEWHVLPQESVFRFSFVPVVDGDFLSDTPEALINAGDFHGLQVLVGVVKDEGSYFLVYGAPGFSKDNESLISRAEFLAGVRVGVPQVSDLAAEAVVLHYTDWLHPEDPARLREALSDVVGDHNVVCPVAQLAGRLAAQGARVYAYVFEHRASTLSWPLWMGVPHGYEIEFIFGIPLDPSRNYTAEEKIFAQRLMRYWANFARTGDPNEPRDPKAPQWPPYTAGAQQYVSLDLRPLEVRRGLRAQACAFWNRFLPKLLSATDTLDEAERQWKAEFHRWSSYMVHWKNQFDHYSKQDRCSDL
Compound,hAChE RA at 100 μM (hAChE [1]),p38α MAPK RA at 100 μM (human p38α MAPK),RA at 100 µM (p38α MAPK) [%],hBChE RA at 100 μM (hBChE [2]),RA at 100 µM (hAChE [3]) [%],RA at 100 µM (hBChE [4]) [%],"IC50 (human p38α MAPK; read-out: p38α MAPK IC50 ± SEM, two independent experiments, each in triplicate) [nM]"
"COc1ccc(Oc2cc3cnn(CC(C)C)c3cc2C(=O)NCCN(C)C)cc1 [Compound 91, N-(2-(Dimethylamino)ethyl)-1-isobutyl-5-(4-methoxyphenoxy)-1H-indazole-6-carboxamide]",75.2% and 75.2 ± 3.8%,0.9 ± 0.3%,0.9 ± 0.3,54.1% and 54.1 ± 1.3%,75.2 ± 3.8,54.1 ± 1.3,
"CC(C)Cn1ncc2cc(S(=O)(=O)c3ccc(F)cc3F)c(C(=O)NCCN(C)C)cc21 [Compound 93, 5-((2,4-Difluorophenyl)sulfonyl)-N-(2-(dimethylamino)ethyl)-1-isobutyl-1H-indazole-6-carboxamide]",98.0% and 98.0 ± 2.7%,5.9 ± 0.2%,5.9 ± 0.2,77.6% and 77.6 ± 3.1%,98.0 ± 2.7,77.6 ± 3.1,
"Methyl-1-(cyclopropylmethyl)-5-(2,4-difluorophenoxy)-1H-indazole-6-carboxylate [Compound 27]",81.1% and 81.1 ± 2.3%,,,76.6% and 76.6 ± 11.7%,,,330 ± 158
"N-(2-(1H-Pyrrol-1-yl)ethyl)-1-(cyclohexylmethyl)-5-(2,4-difluorophenoxy)-2H-indazole-6-carboxamide [Compound 104]",67.6 ± 2.3%,81.2% and 81.2 ± 6.6%,,34.4±1.5%,,,
